Measurements published in ChEMBL document CHEMBL1697731, “Cheminformatics analysis of assertions mined from literature that describe drug-induced liver injury in different species” (Chem Res Toxicol, 2010).

Columns and labels:
Hepatotoxicity [1] = experiment: Literature-mined compound from Fourches et al multi-species drug-induced liver injury (DILI) dataset, effect in humans; details: human
Hepatotoxicity [2] = experiment: Literature-mined compound from Fourches et al multi-species drug-induced liver injury (DILI) dataset, effect in rodents; details: rodentia
Hepatotoxicity [3] = experiment: Literature-mined compound from Fourches et al multi-species drug-induced liver injury (DILI) dataset, effect in non-rodents

Structure (SMILES) | Hepatotoxicity (Hepatotoxicity [1]) | Hepatotoxicity (Hepatotoxicity [2]) | Hepatotoxicity (Hepatotoxicity [3]) | Hepatotoxicity (Hepatotoxicity [1]; Liver) | Hepatotoxicity (Hepatotoxicity [2]; Liver) | Hepatotoxicity (Hepatotoxicity [3]; Liver)
CCCCCCCC/C=C\CCCCCCCC(=O)O [OLEIC ACID] | no drug-induced liver injury reported | drug-induced liver injury reported | no drug-induced liver injury reported |  |  | 
CN(C)CCOC(c1ccccc1)c1ccccc1 [DIPHENHYDRAMINE] |  |  |  | no drug-induced liver injury reported | drug-induced liver injury reported | no drug-induced liver injury reported
C[C@H](CS)C(=O)N1CCC[C@H]1C(=O)O [CAPTOPRIL] | drug-induced liver injury reported | drug-induced liver injury reported | no drug-induced liver injury reported |  |  | 
C=C/C=C\[C@H](C)[C@H](OC(N)=O)[C@@H](C)[C@H](O)[C@@H](C)C/C(C)=C\[C@H](C)[C@@H](O)[C@@H](C)/C=C\[C@@H](O)C[C@@H]1OC(=O)[C@H](C)[C@@H](O)[C@H]1C [DISERMOLIDE] | drug-induced liver injury reported | no drug-induced liver injury reported | no drug-induced liver injury reported |  |  | 
CC(C)(C#N)c1cc(Cn2cncn2)cc(C(C)(C)C#N)c1 [ANASTROZOLE] | drug-induced liver injury reported | no drug-induced liver injury reported | no drug-induced liver injury reported |  |  | 
COc1ncnc(NS(=O)(=O)c2ccc(N)cc2)c1OC [SULFADOXINE] | no drug-induced liver injury reported | no drug-induced liver injury reported | drug-induced liver injury reported |  |  | 
C=CCC1(CC=C)C(=O)NC(=O)NC1=O [ALLOBARBITAL] | no drug-induced liver injury reported | drug-induced liver injury reported | no drug-induced liver injury reported |  |  | 
O=C(O)COc1nn(Cc2ccccc2)c2ccccc12 [BENDAZAC] |  |  |  | drug-induced liver injury reported | no drug-induced liver injury reported | no drug-induced liver injury reported
CCC1(c2ccccc2)NC(=O)N(C)C1=O (stereo not given) [MEPHENYTOIN] | no drug-induced liver injury reported | drug-induced liver injury reported | no drug-induced liver injury reported |  |  | 
CC1=C(/C=C/C(C)=C/C=C/C(C)=C/C=C/C=C(C)/C=C/C=C(C)/C=C/C2=C(C)C(=O)[C@@H](O)CC2(C)C)C(C)(C)C[C@H](O)C1=O [ASTAXANTHIN] | no drug-induced liver injury reported | drug-induced liver injury reported | no drug-induced liver injury reported |  |  | 
Cn1cnc2c(F)c(Nc3ccc(Br)cc3Cl)c(C(=O)NOCCO)cc21 [SELUMETINIB] | no drug-induced liver injury reported | drug-induced liver injury reported | no drug-induced liver injury reported |  |  | 
CCOC(=O)C1=C(COCCN)NC(C)=C(C(=O)OC)C1c1ccccc1Cl (stereo not given) [AMLODIPINE] | no drug-induced liver injury reported | drug-induced liver injury reported | no drug-induced liver injury reported |  |  | 
Nc1nc(Cl)nc2c1ncn2[C@H]1C[C@H](O)[C@@H](CO)O1 [CLADRIBINE] | drug-induced liver injury reported | no drug-induced liver injury reported | no drug-induced liver injury reported |  |  | 
CC(C)c1cc(C(C)C)c(CC(=O)NS(=O)(=O)Oc2c(C(C)C)cccc2C(C)C)c(C(C)C)c1 [AVASIMIBE] | drug-induced liver injury reported | drug-induced liver injury reported | no drug-induced liver injury reported |  |  | 
CC1=C(CC(=O)NCc2ccccc2)c2cc(F)ccc2/C1=C\c1ccncc1.Cl [CP-461] | drug-induced liver injury reported | no drug-induced liver injury reported | no drug-induced liver injury reported |  |  | 
